# Results: patent US9314498B2, “Bacteriocin derived from Lactobacillus rhamnosus” (priority 2011, dated 2016)
# Key:
# MC3T3-E1 cells = test: Differentiation into osteoblasts: Type-I collagen expression by real-time quantitative RT-PCR; format: cell-based, mouse
# Description: MC3T3-E1 cells, which are mouse-derived osteoblast-like cells, were used. The MC3T3-E1 cells were cultured in α-modified Eagle's Medium (α-MEM) supplemented with 10% FBS (Biological industries, Haemek, Israel), L-glutamine, antibiotic mixture (Invitrogen), 50 μg/ml ascorbic acid (Sigma), and 0 nM, 250 nM, 500 nM or 1000 nM Kog2, at 37° C. under 5% CO2 on plastic or titanium. From the thus cultured MC3T3-E1 cells, total RNA was extracted using TRIzol reagent (Invitrogen), and cDNA was then prepared using ReverTra Ace reverse transcriptase (Toyobo Co., Ltd.). Subsequently, the prepared cDNA was used for analyzing expression of Type-I collagen, which is a differentiation marker for osteoblasts, and of β-actin, which is an endogenous control, by real-time quantitative RT-PCR. In the real-time quantitative RT-PCR, Type-I collagen was analyzed using the forward primer shown in SEQ ID NO: 8, the reverse primer shown in SEQ ID NO: 9 and the probe shown in SEQ ID NO: 10. β-actin was analyzed using the forward primer shown in SEQ ID NO: 11, the reverse primer shown in SEQ ID NO: 12, and the probe shown in SEQ ID NO: 13.
# [1] = test system: Candida albicans MYA274 strain; test: Boiling experiment: antimicrobial activity (ATP) against Candida albicans MYA274; format: cell-based; settings: concluded from supernatant boiled at 100° C. for 20 minutes; peptides not directly used
# Description: In Example 9, antimicrobial activity against the Candida albicans MYA274 strain was investigated. The Candida albicans MYA274 strain was precultured in Sabouraud dextrose broth (Difco) at 37° C. for 24 hours, and then washed twice with MQ water, followed by being prepared such that OD600 is 0.3 (1.0×10^7 cells/ml).
# In Example 9, the bacteriocin Kog1 or Kog2, or the Lactobacillus rhamnosus KO1 strain or KO3 strain, was not directly used. Instead, a lactic acid bacterium medium containing the Lactobacillus rhamnosus KO3 strain, 8020 yogurt (liquid type), was used in the experiment More specifically, the 8020 yogurt (liquid type) was prepared by adding the Lactobacillus rhamnosus KO3 strain at a concentration of 1% and YF-L811 starter at a concentration of 1% to the 15% skim milk+3% glucose medium, and then performing culture at 35° C. for 2 days.
# Such 8020 yogurt (liquid type) was centrifuged to obtain a supernatant from which the lactic acid bacterium was removed (hereinafter referred to as Supernatant B). In the experiment, Supernatant B and a sample prepared by boiling Supernatant B at 100° C. for 20 minutes (hereinafter referred to as Supernatant Boil) were used. […]
# In order to study changes in the antimicrobial activity by boiling, the following 3 kinds of samples were placed in a 24-well plate, and the value of ATP (pmol/L) after 24 hours of incubation at 37° C. was measured. […]
# [2] = test system: Porphyromonas gingivalis Hudoi001 strain; test: Antimicrobial activity against Porphyromonas gingivalis Hudoi001; format: cell-based; settings: not shown in the figures
# Description: (§1) The Candida albicans GDH18 strain was precultured using SD medium (Difco) at 37° C. for 24 hours under aerobic conditions. The Streptococcus sobrinus B-13 strain, Streptococcus mutans NCTC10449 strain and Streptococcus mutans Ingbritt strain were precultured using TSB medium (Difco) supplemented with 5% yeast extract (Difco) at 37° C. for 24 hours under aerobic conditions. The Porphyromonas gingivalis Hudoi001 strain and Aggregatibacter actinomycetemcomitans Hudoe001 strain were precultured using BHI medium (Difco) supplemented with hemin (5 mg/L) and vitamin K3 (1 mg/L) at 37° C. for 96 hours under anaerobic conditions with Anaero Pack System (Mitsubishi Gas Chemical Company, Inc.).
# (§2) After the culture, the cells of the Candida, cariogenic bacteria and periodontal disease bacteria were collected by centrifugation at 1000×g, and washed twice with 1 mM phosphate buffer (pH 6.8). The cells were then suspended such that the final concentration was 1×10^8 cfu/ml or 1×10^7 cells/m. For suspension of the Streptococcus strains, ultrasonic treatment was also carried out.
# That is, it is assumed that, in Examples described in Patent Literature 1, the Lactobacillus rhamnosus KO3 strain expressed Kog1 and Kog2, and the expressed Kog1 and Kog2 exerted antimicrobial activity against the Porphyromonas gingivalis Hudoi001 strain. […]
# [3] = test system: Streptococcus mutans NCTC10449 strain; test: Antimicrobial activity against Streptococcus mutans NCTC10449; format: cell-based; settings: 0 to 100 μM, FIG. 4
# [4] = test system: Candida albicans GDH18 strain; test: Antimicrobial activity (CFU count, percentage of living cells) against Candida albicans GDH18; format: cell-based; settings: 37° C., 90 minutes, 1 mM phosphate buffer
# Description: As the Candida, cariogenic bacteria and periodontal disease bacteria, the Candida albicans GDH18 strain, Streptococcus sobrinus B-13 strain, Streptococcus mutans NCTC10449 strain, Streptococcus mutans Ingbritt strain, Porphyromonas gingivalis Hudoi001 strain and Aggregatibacter actinomycetemcomitans Hudoe001 strain were used. The test strains were provided from Faculty of Dentistry, Hiroshima University, Japan, and Hiroshima University Dental Hospital.
# as §1, §2
# Evaluation of the antimicrobial activity was carried out by the method by Edgerton and others (1998) with some modifications. With 20 mL of 1 mM phosphate buffer containing 0 to 25 μM Kog1 or Kog2 synthesized in Example 1, 20 μl of the suspension of the Candida albicans GDH18 strain cultured and prepared by the method described in the above Preparation Example was mixed, and the resulting mixture was incubated at 37° C. for 90 minutes with shaking. As a control, 20 ml of 1 mM phosphate buffer alone was used. The reaction was stopped by addition of 360 ml of YNB medium (Difco), and the number of colonies formed (colony forming units; CFUs) was counted together with the number of colonies in the control, to determine the percentage of living bacterial cells. That is, the equation of: (CFUs of suspension containing Kog1 or Kog2/CFU ml^−1 of control suspension)×100 was used to calculate the percentage.
# [5] = test system: Streptococcus mutans Ingbritt strain; test: Antimicrobial activity against Streptococcus mutans Ingbritt; format: cell-based; settings: 0 to 100 μM, FIG. 5
substance,measurement,setting,value
"Kog2: peptide having the amino acid sequence shown in SEQ ID NO: 2, bacteriocin of Lactobacillus rhamnosus, synthesized by the tea-bag method (MTKVRSSRLRPLTLRLLSAPARAQFLTIACRAILRYDLINS; listed as Lactobacillus rhamnosus)",value of Type I collagen/β-actin versus no Kog2 added,MC3T3-E1 cells; Kog2 at 250 nM vs ctrl,3 times
same,concentration that best promotes differentiation into osteoblasts,"MC3T3-E1 cells; tested 0, 250, 500, 1000 nM",about 250 nM
same,heat resistance (antimicrobial activity after heating),[1],still maintain antimicrobial activity after heating
same,antimicrobial activity,[2],capable of exerting antimicrobial activity
same,"antimicrobial activity compared to the other antimicrobial peptides (hBD2, lysozyme)",[3],capable of killing a larger amount of Streptococcus mutans even at relatively low peptide concentration
same,peptide concentration at which 100% of the strain was killed,[4],0.39 µM
same,"antimicrobial activity compared to the other antimicrobial peptides (hBD2, lysozyme)",[5],capable of killing a larger amount of Streptococcus mutans even at relatively low peptide concentration
